# According to US9156829B2, “Cycloalkyl and heterocycloalkyl compounds as orexin receptor antagonists” (Takeda Pharmaceutical Company Limited, priority 2014, dated 2015):
# pIC50: −log10 of the molar value.
# Key:
# human orexin receptor 1 = human orexin receptor 1 (Homo sapiens (Human), UniProt O43613); experiment: Orexin antagonist activity, intracellular calcium FLIPR assay, RBL-2H3 cells expressing human orexin receptor 1; assay type: cell-based; conditions: RBL-2H3 cells stably expressing human orexin receptor 1; orexin-A at approx. 80% maximal response; compound added 15 minutes before; read-out: Human Orexin1R IC50
# Chain of human orexin receptor 1 (O43613 whole entry): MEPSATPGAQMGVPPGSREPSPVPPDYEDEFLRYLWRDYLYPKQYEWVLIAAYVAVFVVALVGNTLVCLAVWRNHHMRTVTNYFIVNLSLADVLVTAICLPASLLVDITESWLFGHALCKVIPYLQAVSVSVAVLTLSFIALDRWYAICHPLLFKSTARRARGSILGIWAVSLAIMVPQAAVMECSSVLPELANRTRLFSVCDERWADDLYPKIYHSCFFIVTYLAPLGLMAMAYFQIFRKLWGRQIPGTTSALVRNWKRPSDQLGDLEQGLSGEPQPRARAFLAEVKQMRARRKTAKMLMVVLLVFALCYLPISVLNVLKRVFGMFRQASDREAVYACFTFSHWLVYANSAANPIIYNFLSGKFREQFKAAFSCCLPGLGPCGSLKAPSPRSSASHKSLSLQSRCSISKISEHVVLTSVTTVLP
# human orexin receptor 2 = human orexin receptor 2 (Homo sapiens (Human), UniProt O43614); experiment: Orexin antagonist activity, intracellular calcium FLIPR assay, RBL-2H3 cells expressing human orexin receptor 2; assay type: cell-based; conditions: RBL-2H3 cells stably expressing human orexin receptor 2; orexin-A at approx. 80% maximal response; compound added 15 minutes before; read-out: Human Orexin2R IC50
# Chain of human orexin receptor 2 (O43614 whole entry): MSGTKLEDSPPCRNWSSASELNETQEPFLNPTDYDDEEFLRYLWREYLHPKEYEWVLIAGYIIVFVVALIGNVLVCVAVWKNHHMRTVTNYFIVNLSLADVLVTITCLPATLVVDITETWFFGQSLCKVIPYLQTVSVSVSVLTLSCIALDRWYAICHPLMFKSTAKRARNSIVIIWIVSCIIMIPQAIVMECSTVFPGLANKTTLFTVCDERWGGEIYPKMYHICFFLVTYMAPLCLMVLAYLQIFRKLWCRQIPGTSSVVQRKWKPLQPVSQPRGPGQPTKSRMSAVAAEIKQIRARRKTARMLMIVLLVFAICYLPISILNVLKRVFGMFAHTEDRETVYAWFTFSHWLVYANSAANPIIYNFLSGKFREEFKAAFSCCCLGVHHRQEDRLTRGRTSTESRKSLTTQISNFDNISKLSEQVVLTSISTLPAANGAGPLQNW
Compound,pIC50 (human orexin receptor 1),pIC50 (human orexin receptor 2)
"C[C@]1(Nc2cnc(C(F)(F)F)cn2)CCC[C@@H]1NC(=O)c1ncccc1OC(F)(F)F [Example 90, N-[(1S,2S)-2-Methyl-2-{[5-(trifluoromethyl)pyrazin-2-yl]amino}cyclopentyl]-3-(trifluoromethoxy)pyridine-2-carboxamide]",7.17,< 5.00
"O=C(N[C@H]1CCC[C@@H]1Nc1cnc(C(F)(F)F)cn1)c1c(F)ccc(F)c1-n1nccn1 [Example 64, 3,6-Difluoro-2-(2H-1,2,3-triazol-2-yl)-N-[(1S,2S)-2-{[5-(trifluoromethyl)pyrazin-2-yl]amino}cyclopentyl]benzamide]",7.24,< 5.00
"O=C(N[C@H]1CCC[C@@H]1Nc1ccc(C(F)(F)F)cn1)c1ncccc1-n1nccn1 [Example 100, 3-(2H-1,2,3-Triazol-2-yl)-N-[(1S,2S)-2-{[5-(trifluoromethyl)pyridin-2-yl]amino}cyclopentyl]pyridine-2-carboxamide]",6.89,< 5.00
"O=C(N[C@H]1CCC[C@@H]1Nc1cnc(C(F)(F)F)cn1)c1ccccc1-c1ncccn1 [Example 38, 2-(Pyrimidin-2-yl)-N-[(1S,2S)-2-{[5-(trifluoromethyl)pyrazin-2-yl]amino}cyclopentyl]benzamide]",7.31,< 5.00
"CCc1cnc(N[C@H]2CCC[C@@H]2NC(=O)c2ccccc2-n2nccn2)cn1 [Example 114, N-[(1S,2S)-2-[(5-Ethylpyrazin-2-yl)amino]cyclopentyl]-2-(2H-1,2,3-triazol-2-yl)benzamide]",6.00,< 5.00
"CC1(Nc2ccc(C(F)(F)F)cn2)CCCC1NC(=O)c1ncccc1-c1ncccn1 (stereo not drawn) [Example 156, N-(2-Methyl-2-{[5-(trifluoromethyl)pyridin-2-yl]amino}cyclopentyl)-3-(pyrimidin-2-yl)pyridine-2-carboxamide]",7.96,< 5.00
"C[C@]1(Nc2cnc(C(F)(F)F)cn2)CCC[C@@H]1NC(=O)c1cc(Cl)ccc1-n1nccn1 [Example 92, 5-Chloro-N-[(1S,2S)-2-methyl-2-{[5-(trifluoromethyl)pyrazin-2-yl]amino}cyclopentyl]-2-(2H-1,2,3-triazol-2-yl)benzamide]",8.10,5.25
"O=C(N[C@H]1CCC[C@@H]1Nc1cnc(C(F)(F)F)cn1)c1cc(F)ccc1-n1nccn1 [Example 36, 5-Fluoro-2-(2H-1,2,3-triazol-2-yl)-N-[(1S,2S)-2-{[5-(trifluoromethyl)pyrazin-2-yl]amino}cyclopentyl]benzamide]",6.68,< 5.00
"CCc1nc(C(F)(F)F)cnc1N[C@H]1CCC[C@@H]1NC(=O)c1ccccc1-n1nccn1 [Example 111, N-[(1S,2S)-2-{[3-Ethyl-5-(trifluoromethyl)pyrazin-2-yl]amino}cyclopentyl]-2-(2H-1,2,3-triazol-2-yl)benzamide]",7.47,< 5.00
"C[C@]1(Nc2cnc(C(F)(F)F)cn2)CCC[C@@H]1NC(=O)c1ncccc1C1CC1 [Example 89, 3-Cyclopropyl-N-[(1S,2S)-2-methyl-2-{[5-(trifluoromethyl)pyrazin-2-yl]amino}cyclopentyl]pyridine-2-carboxamide]",6.85,< 5.00
"O=C(N[C@H]1CCC[C@@H]1Nc1cnc(C(F)(F)F)cn1)c1ccccc1-n1cccn1 [Example 31, 2-(1H-Pyrazol-1-yl)-N-[(1S,2S)-2-{[5-(trifluoromethyl)pyrazin-2-yl]amino}cyclopentyl]benzamide]",6.91,< 5.00
"CC1(Nc2ncc(C(F)(F)F)cn2)CCCC1NC(=O)c1ncccc1-n1nccn1 (stereo not drawn) [Example 154, N-(2-Methyl-2-{[5-(trifluoromethyl)pyrimidin-2-yl]amino}cyclopentyl)-3-(2H-1,2,3-triazol-2-yl)pyridine-2-carboxamide]",7.38,< 5.00
"O=C(N[C@H]1CCC[C@@H]1Nc1cnc(C(F)(F)F)cn1)c1c(-n2nccn2)ccc(F)c1F [Example 56, 2,3-Difluoro-6-(2H-1,2,3-triazol-2-yl)-N-[(1S,2S)-2-{[5-(trifluoromethyl)pyrazin-2-yl]amino}cyclopentyl]benzamide]",6.78,< 5.00
"O=C(N[C@H]1CCC[C@@H]1Nc1cnc(C(F)(F)F)cn1)c1ncccc1OC(F)(F)F [Example 58, 3-(Trifluoromethoxy)-N-[(1S,2S)-2-{[5-(trifluoromethyl)pyrazin-2-yl]amino}cyclopentyl]pyridine-2-carboxamide]",6.03,< 5.00
"C[C@]1(Nc2cnc(C(F)(F)F)cn2)CCC[C@@H]1NC(=O)c1cc(F)ccc1-n1nccn1 [Example 84, 5-Fluoro-N-[(1S,2S)-2-methyl-2-{[5-(trifluoromethyl)pyrazin-2-yl]amino}cyclopentyl]-2-(2H-1,2,3-triazol-2-yl)benzamide]",7.66,< 5.00
"O=C(N[C@H]1CCC[C@@H]1Nc1ccc(C(F)(F)F)cn1)c1cccc(F)c1-n1nccn1 [Example 98, 3-Fluoro-2-(2H-1,2,3-triazol-2-yl)-N-[(1S,2S)-2-{[5-(trifluoromethyl)pyridin-2-yl]amino}cyclopentyl]benzamide]",6.80,< 5.00
"O=C(N[C@H]1CCC[C@@H]1Nc1ccc(C(F)(F)F)cn1)c1cc(F)cc(F)c1-n1nccn1 [Example 99, 3,5-Difluoro-2-(2H-1,2,3-triazol-2-yl)-N-[(1S,2S)-2-{[5-(trifluoromethyl)pyridin-2-yl]amino}cyclopentyl]benzamide]",6.82,< 5.00
"C[C@]1(Nc2cnc(C(F)(F)F)cn2)CCC[C@@H]1NC(=O)c1ncccc1-n1nccn1 [Example 77, N-[(1S,2S)-2-Methyl-2-{[5-(trifluoromethyl)pyrazin-2-yl]amino}cyclopentyl]-3-(2H-1,2,3-triazol-2-yl)pyridine-2-carboxamide]",7.92,< 5.00
"Cc1noc(-c2ccccc2C(=O)N[C@H]2CCC[C@@H]2Nc2cnc(C(F)(F)F)cn2)n1 [Example 15, 2-(3-Methyl-1,2,4-oxadiazol-5-yl)-N-[(1S,2S)-2-{[5-(trifluoromethyl)pyrazin-2-yl]amino}cyclopentyl]benzamide]",7.31,< 5.00
"CCc1nc(C(F)(F)F)cnc1N[C@H]1CCC[C@@H]1NC(=O)c1cc(F)ccc1-c1ncccn1 [Example 158, N-[(1S,2S)-2-{[3-Ethyl-5-(trifluoromethyl)pyrazin-2-yl]amino}cyclopentyl]-5-fluoro-2-(pyrimidin-2-yl)benzamide]",8.30,< 5.00
"O=C(N[C@H]1CCC[C@@H]1Nc1ncc(C(F)(F)F)cc1Br)c1ccccc1-n1nccn1 [Example 107, N-[(1S,2S)-2-{[3-Bromo-5-(trifluoromethyl)pyridin-2-yl]amino}cyclopentyl]-2-(2H-1,2,3-triazol-2-yl)benzamide]",7.57,< 5.00
"O=C(N[C@H]1CCC[C@@H]1Nc1ncc(C(F)(F)F)cc1Cl)c1ncccc1-c1ncccn1 [Example 148, N-[(1S,2S)-2-{[3-Chloro-5-(trifluoromethyl)pyridin-2-yl]amino}cyclopentyl]-3-(pyrimidin-2-yl)pyridine-2-carboxamide]",7.72,< 5.00
"O=C(N[C@H]1CCC[C@@H]1Nc1cnc(C(F)(F)F)cn1)c1cc(C(F)(F)F)ccc1-n1nccn1 [Example 45, 2-(2H-1,2,3-Triazol-2-yl)-5-(trifluoromethyl)-N-[(1S,2S)-2-{[5-(trifluoromethyl)pyrazin-2-yl]amino}cyclopentyl]benzamide]",6.62,< 5.00
"Cc1noc(-c2ccccc2C(=O)N[C@H]2CCC[C@@H]2Nc2ncc(C(F)(F)F)cc2F)n1 [Example 140, N-[(1S,2S)-2-{[3-Fluoro-5-(trifluoromethyl)pyridin-2-yl]amino}cyclopentyl]-2-(3-methyl-1,2,4-oxadiazol-5-yl)benzamide]",7.46,< 5.00
"CCOc1cccnc1C(=O)N[C@H]1CCC[C@@H]1Nc1cnc(C(F)(F)F)cn1 [Example 60, 3-Ethoxy-N-[(1S,2S)-2-{[5-(trifluoromethyl)pyrazin-2-yl]amino}cyclopentyl]pyridine-2-carboxamide]",6.07,< 5.00
"O=C(N[C@H]1CCC[C@@H]1Nc1cnc(C(F)(F)F)cn1)c1ncccc1C1CC1 [Example 63, 3-Cyclopropyl-N-[(1S,2S)-2-{[5-(trifluoromethyl)pyrazin-2-yl]amino}cyclopentyl]pyridine-2-carboxamide]",6.35,< 5.00
"CC(C)c1nc(C(F)(F)F)cnc1N[C@H]1CCC[C@@H]1NC(=O)c1ccccc1-n1nccn1 [Example 110, N-[(1S,2S)-2-{[3-(Propan-2-yl)-5-(trifluoromethyl)pyrazin-2-yl]amino}cyclopentyl]-2-(2H-1,2,3-triazol-2-yl)benzamide]",7.37,5.45
"Cc1ccc(-n2nccn2)c(C(=O)N[C@H]2CCC[C@@H]2Nc2cnc(Cl)cn2)c1 [Example 9, N-[(1S,2S)-2-[(5-Chloropyrazin-2-yl)amino]cyclopentyl]-5-methyl-2-(2H-1,2,3-triazol-2-yl)benzamide]",6.47,< 5.00
"CC1(Nc2ncc(C(F)(F)F)cn2)CCCC1NC(=O)c1ncccc1-c1ncccn1 (stereo not drawn) [Example 153, N-(2-Methyl-2-{[5-(trifluoromethyl)pyrimidin-2-yl]amino}cyclopentyl)-3-(pyrimidin-2-yl)pyridine-2-carboxamide]",7.18,< 5.00
"O=C(NC1CC(F)(F)CC1Nc1ccc(C(F)(F)F)cn1)c1ccccc1-n1nccn1 (single isomer, unassigned) [Example 129, N-(4,4-Difluoro-2-{[5-(trifluoromethyl)pyridin-2-yl]amino}cyclopentyl)-2-(2H-1,2,3-triazol-2-yl)benzamide]",6.20,5.06
